From ChEMBL document CHEMBL1201862, “PubChem BioAssay data set” (2004)
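Exposure lasted 48 hours, with cells grown in 96-well plates and compounds tested at five concentrations. Abbreviation: GI50, concentration required for 50% inhibition of growth.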 Active and inactive are the calls of the source. No stated cut-off is given here; in the data, active = GI50 up to about 1.1 µM and inactive = higher.

Columns and labels:
Assay in all cases: growth of human tumour cells (NCI), 48 h
[1] = system: SF-539
[2] = system: 786-0
[3] = system: OVCAR-3
[4] = system: HL-60
[5] = system: ACHN
[6] = system: HCT-116
[7] = system: BT-549
[8] = system: OVCAR-4
[9] = system: UACC-257
[10] = system: HOP-62
[11] = system: OVCAR-8
[12] = system: CAKI-1
[13] = system: K562
[14] = system: RPMI-8226
[15] = system: MDA-MB-435
[16] = system: NCI-H226
[17] = system: HOP-92
[18] = system: SNB-19
[19] = system: EKVX
[20] = system: OVCAR-5

Measured: GI50

OCCn1cnc2c(SCc3ccccc3)ncnc21
inactive: [1] 87.5 µM | [2] > 100 µM | [3] > 100 µM | [4] 68.1 µM | [5] > 100 µM | [6] 48.8 µM | [7] 95.7 µM | [8] > 100 µM | [9] > 100 µM | [10] > 100 µM | [11] > 100 µM | [12] > 100 µM | [13] 79.4 µM | [14] 97.5 µM | [15] > 100 µM | [16] > 100 µM | [17] > 100 µM | [18] > 100 µM | [19] > 100 µM | [20] > 100 µM

N#Cc1nc(COCCOCc2ccccc2)oc1N
inactive: [1] > 100 µM | [2] > 100 µM | [3] > 100 µM | [4] > 100 µM | [5] > 100 µM | [6] > 100 µM | [7] 88.9 µM | [8] > 100 µM | [9] > 100 µM | [10] > 100 µM | [11] > 100 µM | [12] > 100 µM | [13] > 100 µM | [14] > 100 µM | [15] > 100 µM | [16] > 100 µM | [17] > 100 µM | [18] > 100 µM | [19] > 100 µM | [20] > 100 µM

CCCCCCCCNC(=O)C1=C(C)NC(C)=C(C(=O)NCCCCCCCC)C1
inactive: [1] > 100 µM | [2] > 100 µM | [3] > 100 µM | [4] > 100 µM | [5] 92.7 µM | [6] > 100 µM | [7] > 100 µM | [8] > 100 µM | [9] > 100 µM | [10] > 100 µM | [11] > 100 µM | [12] > 100 µM | [13] > 100 µM | [14] 71 µM | [15] 44.8 µM | [16] > 100 µM | [17] > 100 µM | [18] > 100 µM | [19] > 100 µM | [20] > 100 µM

CC(=O)N1C(C(=O)NC2CCCCC2)CSC1c1ccccc1 (stereo not given)
inactive: [1] > 100 µM | [2] > 100 µM | [3] > 100 µM | [4] > 100 µM | [5] > 100 µM | [6] > 100 µM | [7] > 100 µM | [8] > 100 µM | [9] > 100 µM | [10] > 100 µM | [11] > 100 µM | [12] > 100 µM | [13] > 100 µM | [14] > 100 µM | [15] > 100 µM | [16] 51.6 µM | [17] 68.2 µM | [18] > 100 µM | [19] > 100 µM | [20] > 100 µM
